The values below come from US20060122222A1, “Heterocycle substituted carboxylic acids” (The Institutes for Pharmaceutical Discovery, LLC, priority 2004, published 2006).

With `O=C(O)[C@@H]1CSC(c2ccc(-c3ccc(-c4c(Cc5ccccc5)oc5ccccc45)cc3)cc2)N1` (mixture of isomers) [Example 38, (2RS, 4R)-2-[4′-(2-Benzylbenzofuran-3-yl)biphen-4-yl]thiazolidine-4-carboxylic acid], the melting point (in general, the temperature, or range, at which the solid turns liquid) was 148 °C (dec.).

Take `O=C(O)[C@@H]1CSC(c2ccc(-c3ccc(-n4ccc5ccccc54)cc3)cc2)N1` (stereo in doubt) [Example 27, 2-(4′-Indol-1-yl-biphen-4-yl)thiazolidine-4-carboxylic acid]: the melting point was 135 to 137 °C (dec.).

In the case of `O=C(O)C(=O)Nc1cc(-c2ccc(-c3cccc4c3oc3ccccc34)cc2)cn(Cc2ccccc2)c1=O` [Example 4, N-[1-Benzyl-5-(4-dibenzofuran-4-yl-phenyl)-2-oxo-1,2-dihydro-pyridin-3-yl]-oxalamic acid], the melting point lay in the range of 220 to 223 °C.

`CCc1ccc(-c2sc(NC(=O)c3ccc(S(=O)(=O)N4CCCC4C(=O)O)cc3)nc2-c2ccc(Cl)cc2)cc1` (stereo not drawn) [Example 5, 1-{4-[4-(4-Chloro-phenyl)-5-(4-ethyl-phenyl)-thiazol-2-ylcarbamoyl]-benzenesulfonyl}-pyrrolidine-2-carboxylic acid]: the melting point lay in the range of 289 to 292 °C.

In the case of `O=C(O)CCNc1cc(-c2ccc(-c3cccc4c3oc3ccccc34)cc2)nc(Cc2ccccc2)n1` [Example 45, 3-[2-Benzyl-6-(4-dibenzofuran-4-yl-phenyl)-pyrimidin-4-ylamino]-propionic acid], the melting point is 205 °C (dec.).

`O=C(O)CCNc1cc(-c2ccc(-c3cccc4c3oc3ccccc34)cc2)nc(-c2ccccc2)n1` [Example 46, 3-[2-phenyl-6-(4-dibenzofuran-4-yl-phenyl)-pyrimidin-4-ylamino]-propionic acid]: the melting point was 210 °C (dec.).
